The record followed here is patent US8852604B2, “Multiepitope vaccine for Her2/neu-associated cancers” (Pevion Biotech AG, priority 2009, dated 2014).

Read-outs that look alike come from different tables or passages of the source. No end group written: not given here.

On data set [1], the source says: The polydispersity of a virosomal preparation is an indication for the homogeneity of the particle size in an aqueous solution, with lower polydispersity being associated with a greater degree of homogeneity of size over all virosomes present in the composition.
Data set [2] is described as follows: physchem.
Data set [3] is described as follows: physchem. The source holds these as a separate data set.

As a reminder, the solubility is the concentration that dissolves in the medium under given conditions. Low readings indicate a poorly soluble substance, high ones a readily soluble substance.

As to PESFDGDPASNTAPLQPGGGGGC [PEV601], the “Stabilty(I)IRIV” value in data set [1] is reported as “acceptable”. In addition, in data set [2], the solubility is 2000 to 3000 µg/mL.

Turning to “PESFDGDPASNTAPLQPRVLQGLPREYVNARHSLPYMPIWKFPDEEGAC [PEV604]”, the “Stabilty(I)IRIV” value in data set [1] is listed as “limited”. For the same sequence, the solubility in data set [3] is 500 to 1500 µg/mL; in data set [2], 800 µg/mL.

Turning to “PESFDGDPASNTAPLQPRVLQGLPREYVNARHSYMPIWKFPDEEGAC [PEV605, PESFDGDPASNTAPLQP RVLQGLPREYVNARHS YMPIWKFPDEEGAC]”, the “Stabilty(I)IRIV” value in data set [1] was “limited”. In data set [2], the solubility stood at 800 µg/mL.

For the sequence “PESFDGDPASNTAPLQPYMPIWKFPDEEGASRVLQGLPREYVNARHC [PEV606, PESFDGDPASNTAPLQP YMPIWKFPDEEGAS RVLQGLPREYVNARHC]”, in data set [1], the “Stabilty(I)IRIV” value is recorded as “limited”. In data set [2], this sequence had a solubility of 800 µg/mL.

Regarding “RVLQGLPREYVNARHC [PEV602, RVLQGLPREYVNARHC]”, in data set [1], the “Stabilty(I)IRIV” value is given as “limited”. In addition, the solubility in data set [2] was determined as 500 µg/mL.

Consider “RVLQGLPREYVNARHSPESFDGDPASNTAPLQPYMPIWKFPDEEGAC [PEV607, RVLQGLPREYVNARHS PESFDGDPASNTAPLQP YMPIWKFPDEEGAC]”, for which the “Stabilty(I)IRIV” value in data set [1] is “limited”. Further, the solubility is 500 to 1500 µg/mL in data set [3] and 800 µg/mL in data set [2].

Consider “RVLQGLPREYVNARHSYMPIWKFPDEEGASPESFDGDPASNTAPLQPC [PEV608, RVLQGLPREYVNARHS YMPIWKFPDEEGAS PESFDGDPASNTAPLQPC]”, for which, in data set [1], the “Stabilty(I)IRIV” value is “limited”. Also, the solubility in data set [2] turned out to be 800 µg/mL.

Take YMPIWKFPDEEGAC [PEV603, YMPIWKFPDEEGAC]: the “Stabilty(I)IRIV” value in data set [1] is given as “limited”. In addition, the solubility was 2000 to 3000 µg/mL in data set [3] and less than 200 µg/mL in data set [2].

Turning to “YMPIWKFPDEEGASPESFDGDPASNTAPLQPRVLQGLPREYVNARHC [PEV609, YMPIWKFPDEEGAS PESFDGDPASNTAPLQP RVLQGLPREYVNARHC]”, the “Stabilty(I)IRIV” value in data set [1] was “limited”. This sequence had a solubility in data set [2] of 800 µg/mL.

On to “YMPIWKFPDEEGASRVLQGLPREYVNARHSPESFDGDPASNTAPLQPC [PEV610, YMPIWKFPDEEGAS RVLQGLPREYVNARHS PESFDGDPASNTAPLQPC]”, for which, in data set [1], the “Stabilty(I)IRIV” value is “limited”. In data set [2], this sequence showed a solubility of 800 µg/mL.
